Where “and” joins values, the source holds several entries; their conditions need not be identical. Equal entries are not always repeated. One block for each compound: values may come before it. Calls of active or inactive are those of the source.
Legend:
[1] = biological target: DNA dC->dU-editing enzyme APOBEC-3G (Homo sapiens, UniProt Q9HC16); test: inhibition of APOBEC3G ssDNA deamination – biochemical, fluorescence, single-stranded DNA substrate, SAR follow-up (AID 602136); type: functional; settings: read-out: IC50_Mean
Sequence of DNA dC->dU-editing enzyme APOBEC-3G (Q9HC16 whole entry): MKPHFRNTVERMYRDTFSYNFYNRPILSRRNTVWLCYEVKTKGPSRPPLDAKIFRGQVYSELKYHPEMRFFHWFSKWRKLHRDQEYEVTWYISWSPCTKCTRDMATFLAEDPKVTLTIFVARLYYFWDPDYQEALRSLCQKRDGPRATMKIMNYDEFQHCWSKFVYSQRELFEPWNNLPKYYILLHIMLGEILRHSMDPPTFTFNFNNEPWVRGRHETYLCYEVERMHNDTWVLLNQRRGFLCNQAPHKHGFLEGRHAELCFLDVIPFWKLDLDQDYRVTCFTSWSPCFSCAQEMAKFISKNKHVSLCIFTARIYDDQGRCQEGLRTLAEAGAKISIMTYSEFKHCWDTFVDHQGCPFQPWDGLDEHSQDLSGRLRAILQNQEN

[2] = biological target: DNA dC->dU-editing enzyme APOBEC-3A (Homo sapiens, UniProt P31941); test: SAR analysis of small molecule inhibitors of APOBEC3A DNA Deaminase via a fluorescence-based single-stranded DNA deaminase assay.; type: functional; settings: read-out: IC50_Mean
Sequence of DNA dC->dU-editing enzyme APOBEC-3A (P31941 whole entry): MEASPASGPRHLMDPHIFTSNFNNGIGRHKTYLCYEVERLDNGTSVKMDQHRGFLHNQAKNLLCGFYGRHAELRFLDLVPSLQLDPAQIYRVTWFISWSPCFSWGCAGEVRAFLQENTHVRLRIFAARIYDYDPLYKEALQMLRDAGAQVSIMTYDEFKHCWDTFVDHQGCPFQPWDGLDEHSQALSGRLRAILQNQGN

[3] = biological target: T1, ATP-dependent translocase ABCB1 (Homo sapiens, UniProt P08183); test: P-gp JC-1 efflux blockade concentration-response – Jurkat-DNR cells, flow cytometry, set 2, dose response (AID 504569); type: functional; settings: read-out: EC50_MICROM_;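 also: potency of pump inhibitors that raise cellular JC-1 green fluorescence up to the nicardipine level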
T1 sequence (P08183 whole entry): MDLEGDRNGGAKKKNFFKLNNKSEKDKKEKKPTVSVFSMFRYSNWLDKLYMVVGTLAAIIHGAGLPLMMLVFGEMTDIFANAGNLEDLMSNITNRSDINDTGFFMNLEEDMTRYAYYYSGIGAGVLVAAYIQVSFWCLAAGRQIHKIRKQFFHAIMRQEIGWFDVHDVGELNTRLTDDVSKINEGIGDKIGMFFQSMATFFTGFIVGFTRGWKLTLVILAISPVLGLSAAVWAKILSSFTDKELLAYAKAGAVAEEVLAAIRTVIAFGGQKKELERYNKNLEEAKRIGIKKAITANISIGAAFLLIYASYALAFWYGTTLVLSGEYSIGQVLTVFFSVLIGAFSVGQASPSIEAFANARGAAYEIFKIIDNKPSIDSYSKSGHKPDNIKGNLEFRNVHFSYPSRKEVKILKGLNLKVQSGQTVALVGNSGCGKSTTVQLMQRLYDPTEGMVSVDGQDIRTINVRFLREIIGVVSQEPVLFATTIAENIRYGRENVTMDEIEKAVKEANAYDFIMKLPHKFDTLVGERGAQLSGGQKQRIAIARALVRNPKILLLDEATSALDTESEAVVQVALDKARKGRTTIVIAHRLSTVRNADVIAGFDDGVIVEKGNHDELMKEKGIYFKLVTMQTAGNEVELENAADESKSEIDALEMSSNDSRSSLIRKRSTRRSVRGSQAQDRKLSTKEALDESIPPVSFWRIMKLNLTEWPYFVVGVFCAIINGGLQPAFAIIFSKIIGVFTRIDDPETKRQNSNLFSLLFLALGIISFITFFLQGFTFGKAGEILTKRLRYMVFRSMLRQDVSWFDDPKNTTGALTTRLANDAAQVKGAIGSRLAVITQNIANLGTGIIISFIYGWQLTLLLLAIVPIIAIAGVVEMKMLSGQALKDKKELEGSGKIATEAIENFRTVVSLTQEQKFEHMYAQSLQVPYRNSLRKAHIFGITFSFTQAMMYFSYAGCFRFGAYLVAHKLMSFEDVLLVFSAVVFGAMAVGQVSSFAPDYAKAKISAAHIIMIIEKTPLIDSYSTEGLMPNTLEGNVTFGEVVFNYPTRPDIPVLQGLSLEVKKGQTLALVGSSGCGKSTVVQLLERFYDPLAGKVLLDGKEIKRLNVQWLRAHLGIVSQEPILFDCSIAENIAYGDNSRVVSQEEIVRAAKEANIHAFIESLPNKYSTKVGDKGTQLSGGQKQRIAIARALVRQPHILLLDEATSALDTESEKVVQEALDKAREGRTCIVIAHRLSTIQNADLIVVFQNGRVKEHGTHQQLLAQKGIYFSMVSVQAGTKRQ

[4] = biological target: T1, ATP-dependent translocase ABCB1; test: inhibition of BCRP-mediated JC-1 efflux – Ig-MXP3 cells, flow cytometry, set 2, dose response (AID 504566); type: functional; settings: read-out: EC50_MICROM_;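 also: flow cytometry median green fluorescence of retained JC-1 dye; potency of efflux pump inhibition measured as rising substrate retention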
[5] = biological target: T2, Low molecular weight phosphotyrosine protein phosphatase (Homo sapiens, UniProt P24666); type: functional; settings: read-out: IC50_Mean
T2 sequence (P24666 whole entry): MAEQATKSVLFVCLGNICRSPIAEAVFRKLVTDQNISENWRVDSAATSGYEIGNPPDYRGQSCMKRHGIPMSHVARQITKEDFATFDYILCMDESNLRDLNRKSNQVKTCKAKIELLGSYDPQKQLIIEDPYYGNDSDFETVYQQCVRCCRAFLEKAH

[6] = biological target: T2, Low molecular weight phosphotyrosine protein phosphatase; type: functional; settings: read-out: IC50_Mean; remark: listed apart in the source
[7] = biological target: Induced myeloid leukemia cell differentiation protein Mcl-1 (Homo sapiens, UniProt Q07820); type: functional
Sequence of Induced myeloid leukemia cell differentiation protein Mcl-1 (Q07820 whole entry, the tested form may be a part): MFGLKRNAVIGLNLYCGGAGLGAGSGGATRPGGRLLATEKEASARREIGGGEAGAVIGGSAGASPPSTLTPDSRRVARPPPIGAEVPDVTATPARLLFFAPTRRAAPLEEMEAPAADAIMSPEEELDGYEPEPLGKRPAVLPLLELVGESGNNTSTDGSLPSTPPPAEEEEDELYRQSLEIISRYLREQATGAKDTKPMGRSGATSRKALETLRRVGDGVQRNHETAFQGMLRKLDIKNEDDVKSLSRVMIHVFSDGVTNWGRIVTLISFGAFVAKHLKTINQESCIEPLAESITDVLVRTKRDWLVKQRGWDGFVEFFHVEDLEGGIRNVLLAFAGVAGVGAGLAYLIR

[8] = biological target: T3, Tyrosine-protein phosphatase non-receptor type 22 (Homo sapiens, UniProt Q9Y2R2); test: PTPN22 enzyme inhibitors – biochemical, fluorescence, LYP catalytic domain, selectivity assay for LMPTP inhibitor project, dose response (AID 652006); type: functional; settings: read-out: IC50_Mean
T3 sequence (Q9Y2R2 whole entry): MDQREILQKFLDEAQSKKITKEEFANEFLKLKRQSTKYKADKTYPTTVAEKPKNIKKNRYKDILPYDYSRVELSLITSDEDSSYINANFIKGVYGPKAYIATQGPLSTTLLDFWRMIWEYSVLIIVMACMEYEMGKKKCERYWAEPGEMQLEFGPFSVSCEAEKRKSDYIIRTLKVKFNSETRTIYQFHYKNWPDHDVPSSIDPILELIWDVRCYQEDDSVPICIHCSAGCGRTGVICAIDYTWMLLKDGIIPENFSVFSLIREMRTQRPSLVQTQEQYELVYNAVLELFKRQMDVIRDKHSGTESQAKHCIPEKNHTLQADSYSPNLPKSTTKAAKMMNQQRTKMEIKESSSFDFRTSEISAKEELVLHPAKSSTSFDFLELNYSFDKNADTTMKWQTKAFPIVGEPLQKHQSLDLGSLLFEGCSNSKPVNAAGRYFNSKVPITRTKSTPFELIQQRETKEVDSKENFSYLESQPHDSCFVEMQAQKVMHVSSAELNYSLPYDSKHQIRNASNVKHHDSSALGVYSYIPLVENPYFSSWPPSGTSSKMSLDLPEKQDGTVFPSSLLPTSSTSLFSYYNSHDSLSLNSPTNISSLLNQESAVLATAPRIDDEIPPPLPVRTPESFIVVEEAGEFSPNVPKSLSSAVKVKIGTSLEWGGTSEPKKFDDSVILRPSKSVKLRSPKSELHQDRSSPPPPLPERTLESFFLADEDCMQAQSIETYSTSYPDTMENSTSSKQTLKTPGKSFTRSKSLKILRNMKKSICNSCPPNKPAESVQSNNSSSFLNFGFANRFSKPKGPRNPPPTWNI

[9] = inhibition of ARNT PAS-B/TACC3 complex formation – biochemical, AlphaScreen, cherry-picked samples, confirmation (AID 651703); type: functional, Homo sapiens;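 also: His-tagged ARNT PAS-B domain paired with GST-TACC3 E629A dimer coactivator fragment; potency of inhibitors that break up the complex and lower AlphaScreen signal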

Compound: Cc1ccc(-c2nnc(SC(C)C(=O)NCc3ccco3)n2C)cc1 (centres undefined)
IC50 [1]: > 99 µM (inactive) | IC50 [2]: > 99 µM (inactive)

EC50 [3]: 2.67 µM (active) and 3.69 µM (active) | EC50 [4]: 720 nM (active) and 2 µM (active)
Compound: O=C(c1ccco1)N1CCN(c2cc(-c3ccccc3)nc3cc(-c4cccc(Cl)c4)nn23)CC1

IC50 [5]: 12 µM (active) | IC50 [6]: > 80 µM (inactive) | IC50 [7]: 3.42 µM (active) | IC50 [8]: 38.5 µM (inactive)
Compound: COc1ccc(-c2ccc(/C=N/NC(=O)c3cccnc3)o2)c([N+](=O)[O-])c1

Compound: O=C(N/N=C1/CCS(=O)(=O)c2ccc(F)cc21)c1ccccn1
AC50 [9]: 78.4 µM (active)
